This assay concerns the target T1, F508delCFTR (Homo sapiens, UniProt P13569, DEL508-508).
T1 construct: expressed in transfected cells; host or cells: CFBE41o- human lung derived epithelial cells (CFBE41o-F508delCFTR-HRP), doxycycline-inducible
Put plainly: Cell Surface Expression-Horse Radish Peroxidase (CSE-HRP) Assay.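 On EC50 (with co-corrector): co-corrector chromenyl benzoic acid corrector at 2 or 3 µM.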 The class given is cell-based. Conditions: for Maximum % activity (with co-corrector) / Emax: maximum at any tested concentration; for Emax: read-out: Maximum % activity (without co-corrector). The procedure:
A cellular assay for measuring the F508delCFTR cell surface expression after correction with test compounds either without or with a co-corrector (2 μM of 3-[(2R,4R)-4-({[1-(2,2-difluoro-1,3-benzodioxol-5-yl)cyclopropyl]carbonyl}amino)-7-methoxy-3,4-dihydro-2H-chromen-2-yl]benzoic acid), was developed in human lung derived epithelial cell line (CFBE4lo−) (Veit G et al, (2012) Mol Biol Cell. 23(21): 4188-4202). The development was achieved by expressing the F508delCFTR mutation along with a horseradish peroxidase (HRP) in the fourth exofacial loop, and then measuring the HRP activity using luminescence readout from these cells, CFBE410-F508delCFTR-HRP, that were incubated overnight with the test corrector compounds, either without or with the co-corrector. For this primary assay, the CFBE410-F508delCFTR-HRP cells were plated in 384-well plates (Greiner Bio-one; Cat 781080) at 4,000 cells/well along with 0.5 μg/mL doxycycline to induce the F508delCFTR-HRP expression and further incubated at 37° C., 5% CO2 for 68-72 hours. The test compounds were then added either without or with a co-corrector at the required concentrations and further incubated for 18-24 hours at 33° C. The highest concentration tested was 20 μM or 30 μM (GI-1 to GIII-36) with an 8-point concentration response curve using a 3-fold dilution in both the test compound without or with the co-corrector. Three replicate plates were run to determine one EC50. All plates contained negative controls (dimethyl sulfoxide, DMSO) and positive control (2 μM or 3 μM (GI-1 to GIII-36) of 3-[(2R,4R)-4-({[1-(2,2-difluoro-1,3-benzodioxol-5-yl)cyclopropyl]carbonyl}amino)-7-methoxy-3,4-dihydro-2H-chromen-2-yl]benzoic acid) as well as on-plate concentration response of the positive control. Post incubation, the plates were washed 5× times with Dulbecco's phosphate buffered saline (DPBS), followed by the addition of the HRP substrate, luminol (50 4), and measuring the HRP activity using luminescence readout on EnVision® Multilabel Plate Reader (Perkin Elmer; product number 2104-0010). The raw counts from the experiment were analyzed using Accelrys® Assay Explorer v3.3.
Z′ greater than 0.5 was used as passing quality control criteria for the plates.
The Z′ is defined as: 1−[3*SDPositve Control+3*SDNegative Control/Absolute(MeanPositive Control−MeanNegative Control)] wherein “SD” is standard deviation.
The % activity measured at each of the 8 test concentrations of the test compound added either without or with a co-corrector (2 μM or 3 μM (GI-1 to GIII-36) of 3-[(2R,4R)-4-({[1-(2,2-difluoro-1,3-benzodioxol-5-yl)cyclopropyl]carbonyl}amino)-7-methoxy-3,4-dihydro-2H-chromen-2-yl]benzoic acid) was normalized to the on-plate positive control using the following formulae: % activity (Test compound without co-corrector)=[(test compound without co-corrector response DMSO response)/(positive control response DMSO response)]*100 % activity (Test compound with co-corrector)=[(test compound with co-corrector response DMSO response)/(positive control response DMSO response)]*100
The maximum % activity achieved for the test compound either without or with a co-corrector at any tested concentration is presented in Table 6 along with the respective EC50's calculated using the following general sigmoidal curve with variable Hill slope equation (described as Model 42 in the Accelrys® Assay Explorer v3.3 software): y=(a−d)/(1+(x/c)b)+d
General sigmoidal curve with concentration, response, top, bottom, EC50 and Hill slope. This model describes a sigmoidal curve with an adjustable baseline, a. The equation can be used to fit curves where response is either increasing or decreasing with respect to the independent variable, “x”.
“x” is a concentration of drug under test.
“a” is the maximum response, and “d” is the minimum response
“c” is the inflection point (EGO for the curve. That is, “y” is halfway between the lower and upper asymptotes when x=c.
“b” is the slope-factor or Hill coefficient. […]

Setting [1] is: test compound alone, without co-corrector, read-out: EC50 (without co-corrector).
[2] abbreviates: with co-corrector, read-out: EC50 (with co-corrector).
The mark [3] stands for this setting: test compound with co-corrector.
[4] abbreviates: test compound with co-corrector, read-out: EC50 (with co-corrector).
Where [5] appears, read: test compound without co-corrector.
Where [6] appears, read: test compound without co-corrector, read-out: EC50 (without co-corrector).

SMILES strings stand for the structures. Read-outs that look alike come from different tables or passages of the source. Marks after values point to notes of the source that are not given here.

What is called EC50 is the concentration giving half of the maximal effect.

T1 sequence (P13569 with tags, fused parts or gaps DEL508-508): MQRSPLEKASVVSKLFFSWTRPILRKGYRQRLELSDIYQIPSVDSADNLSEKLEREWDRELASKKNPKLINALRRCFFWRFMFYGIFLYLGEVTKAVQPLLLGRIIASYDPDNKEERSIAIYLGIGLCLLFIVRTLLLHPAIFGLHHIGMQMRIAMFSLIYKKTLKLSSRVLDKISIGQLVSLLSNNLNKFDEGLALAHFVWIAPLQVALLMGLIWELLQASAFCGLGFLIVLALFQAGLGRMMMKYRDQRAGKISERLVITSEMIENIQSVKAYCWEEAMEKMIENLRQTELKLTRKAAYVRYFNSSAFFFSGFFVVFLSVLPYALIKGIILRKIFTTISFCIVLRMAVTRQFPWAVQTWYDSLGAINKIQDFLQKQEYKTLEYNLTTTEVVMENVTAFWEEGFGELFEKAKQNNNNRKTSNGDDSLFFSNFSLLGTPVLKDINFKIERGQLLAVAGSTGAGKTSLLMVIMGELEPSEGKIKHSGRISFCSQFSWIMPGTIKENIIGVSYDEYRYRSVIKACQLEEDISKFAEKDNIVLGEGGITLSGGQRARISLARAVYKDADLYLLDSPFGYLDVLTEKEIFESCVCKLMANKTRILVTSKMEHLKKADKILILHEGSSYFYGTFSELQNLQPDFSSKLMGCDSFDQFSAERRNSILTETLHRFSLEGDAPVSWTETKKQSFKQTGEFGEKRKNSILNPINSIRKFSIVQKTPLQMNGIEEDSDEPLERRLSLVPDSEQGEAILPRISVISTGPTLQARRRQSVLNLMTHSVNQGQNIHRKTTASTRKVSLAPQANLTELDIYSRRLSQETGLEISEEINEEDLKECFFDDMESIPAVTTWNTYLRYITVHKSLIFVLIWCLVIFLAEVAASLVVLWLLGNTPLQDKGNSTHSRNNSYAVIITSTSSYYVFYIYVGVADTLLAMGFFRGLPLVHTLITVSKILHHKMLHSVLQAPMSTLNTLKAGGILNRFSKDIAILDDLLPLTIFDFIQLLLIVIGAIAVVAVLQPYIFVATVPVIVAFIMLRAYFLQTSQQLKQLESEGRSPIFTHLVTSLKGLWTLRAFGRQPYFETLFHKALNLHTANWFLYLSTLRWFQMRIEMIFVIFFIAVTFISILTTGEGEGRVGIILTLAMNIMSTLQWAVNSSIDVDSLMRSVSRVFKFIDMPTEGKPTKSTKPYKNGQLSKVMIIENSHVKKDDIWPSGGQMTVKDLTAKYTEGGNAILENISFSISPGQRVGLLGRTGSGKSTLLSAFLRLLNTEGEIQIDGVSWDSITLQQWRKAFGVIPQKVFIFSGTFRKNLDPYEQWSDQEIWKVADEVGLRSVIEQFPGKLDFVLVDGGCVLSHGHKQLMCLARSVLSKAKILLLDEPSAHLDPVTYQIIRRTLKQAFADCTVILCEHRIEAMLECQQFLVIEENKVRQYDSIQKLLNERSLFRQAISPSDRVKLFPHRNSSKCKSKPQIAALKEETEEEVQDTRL

On to `Cc1ccc(C)c(C2(C(=O)NS(=O)(=O)c3cccc4ncccc34)CC2)c1` [II-61], for which the concentration giving a half-maximal response (EC50) was less than 3 µM under setting [1] and less than 3 µM under setting [2]. Besides, the “Maximum % activity (with co-corrector)” value (with co-corrector) was “+++ (≥350)”. Moreover, the Emax (without co-corrector) was more than 150%.

In the case of `COCC1(c2ccc(OC)c(C3(C(=O)NS(=O)(=O)c4cccc5nc(N)ccc45)CC3)c2)CC1` [II-82], the EC50 reads like this: under setting [1], 3 to 10 µM; under setting [2], less than 3 µM. Moreover, the “Maximum % activity (with co-corrector)” value (with co-corrector) is listed as “+++ (≥350)”. The Emax (without co-corrector) was more than 150%.

Turning to `COc1cc(C2(C(=O)NS(=O)(=O)c3cccc4[nH]ccc34)CC2)c(OCC2CC2)cn1` [Example GI-95, 1-[5-(cyclopropylmethoxy)-2-methoxypyridin-4-yl]-N-(1H-indole-4-sulfonyl)cyclopropane-1-carboxamide], the “Maximum % activity (with co-corrector)” value under setting [3] was “+++ (≥350)”. The EC50 runs as follows: under setting [4], less than 3 µM; under setting [6], less than 3 µM. Also, under setting [5], the Emax is more than 150%.

As for `Cc1ccc(OC(F)F)c(C2(C(=O)NS(=O)(=O)c3cccc4nc(C)ccc34)CC2)c1` [II-101], the concentration giving a half-maximal response (EC50) under setting [1] was less than 3 µM and the concentration for a half-maximal effect (EC50) under setting [2] was less than 3 µM. In addition, where the note is “with co-corrector”, the “Maximum % activity (with co-corrector)” value is on record as “+++ (≥350)”. The Emax (without co-corrector) was more than 150%.

For `O=C(O)c1ccc(Cl)cc1S(=O)(=O)NC(=O)C1(c2ccc(Cl)cc2Cl)CC1` [Example III-68, 4-chloro-2-{[l-(2,4-dichlorophenyl)cyclopropane-1-carbonyl]sulfamoyl}benzoic acid], the EC50 is, setting by setting: under setting [1], more than 10 µM; under setting [2], less than 3 µM. Moreover, for the setting “with co-corrector”, the “Maximum % activity (with co-corrector)” value is “+ (<150)”. In addition, the Emax (without co-corrector) was less than 50%.

`Cc1ccc(S(=O)(=O)NC(=O)C2(c3ccc(Cl)cc3Cl)CC2)cc1` [Example III-37, 1-(2,4-dichlorophenyl)-N-(4-methylbenzene-1-sulfonyl)cyclopropane-1-carboxamide]: the EC50 was more than 10 µM under setting [1] and 3 to 10 µM under setting [2]. For the same molecule, where the note is “with co-corrector”, the “Maximum % activity (with co-corrector)” value was “++ (≥150 and <350)”. In addition, where the note is “without co-corrector”, the Emax is less than 50%.

In the case of `O=C(NS(=O)(=O)c1ccccc1)C1(c2ccc(Cl)cc2)CCC1` [Example III-7, N-(benzenesulfonyl)-1-(4-chlorophenyl)cyclobutane-1-carboxamide], the EC50 was more than 10 µM under setting [1] and 3 to 10 µM under setting [2]. For the same molecule, the “Maximum % activity (with co-corrector)” value (with co-corrector) is “++ (≥150 and <350)”. Further, the Emax (without co-corrector) is less than 50%.

For the molecule `Cc1ccc(S(=O)(=O)NC(=O)C2(c3cccc(Cl)c3)CC2)cc1C` [Example III-74, 1-(3-chlorophenyl)-N-(3,4-dimethylbenzene-1-sulfonyl)cyclopropane-1-carboxamide], the EC50 is more than 10 µM under setting [1] and more than 10 µM under setting [2]. Besides, the “Maximum % activity (with co-corrector)” value (with co-corrector) is given as “+ (<150)”. For the setting “without co-corrector”, the Emax was less than 50%.

With `CC(C)OC1CCN(c2ncc(C3CCC3)cc2C2(C(=O)NS(=O)(=O)c3cccc4[nH]ccc34)CC2)CC1` [Example GI-104, 1-(5-cyclobutyl-2-{4-[(propan-2-yl)oxy]piperidin-1-yl}pyridin-3-yl)-N-(1H-indole-4-sulfonyl)cyclopropane-1-carboxamide], the “Maximum % activity (with co-corrector)” value under setting [3] is reported as “+++ (≥350)”. The 50% effective concentration (EC50) by setting is: under setting [4], less than 3 µM; under setting [6], less than 3 µM. Under setting [5], the Emax was more than 150%.

For the molecule `CC(C)Oc1ncc(N(C)C)cc1C1(C(=O)NS(=O)(=O)c2cccc3ncccc23)CC1` [Example GI-71, 1-{5-(dimethylamino)-2-[(propan-2-yl)oxy]pyridin-3-yl}-N-(quinoline-5-sulfonyl)cyclopropane-1-carboxamide], the “Maximum % activity (with co-corrector)” value under setting [3] was “+++ (≥350)”. The EC50 was less than 3 µM under setting [4] and 3 to 10 µM under setting [6]. Moreover, under setting [5], the Emax was more than 150%.

With `CO[C@@H](C)COc1ccc(C)cc1C1(C(=O)NS(=O)(=O)c2cccc3ncccc23)CC1` [Example I-113, 1-{2-[(2S)-2-methoxypropoxy]-5-methylphenyl}-N-(quinoline-5-sulfonyl)cyclopropane-1-carboxamide], the EC50 by setting is: under setting [1], less than 3 µM; under setting [2], less than 3 µM. The “Maximum % activity (with co-corrector)” value (with co-corrector) is recorded as “+++ (≥350)”. Also, under “without co-corrector”, the Emax was more than 150%.

Consider `COc1ccc(C2CCC2)cc1C1(C(=O)NS(=O)(=O)c2cccc3[nH]ncc23)CC1` [Example I-56, 1-(5-cyclobutyl-2-methoxyphenyl)-N-(1H-indazole-4-sulfonyl)cyclopropane-1-carboxamide], for which the EC50 is, setting by setting: under setting [1], less than 3 µM; under setting [2], less than 3 µM. The “Maximum % activity (with co-corrector)” value (with co-corrector) was “+++ (≥350)”. The Emax (without co-corrector) is more than 150%.

Turning to `CCc1cnc(OCC2CC2)c(C2(C(=O)NS(=O)(=O)c3cccc4nc(C)ccc34)CC2)c1` [Example GI-107, 1-[2-(cyclopropylmethoxy)-5-ethylpyridin-3-yl]-N-(2-methylquinoline-5-sulfonyl)cyclopropane-1-carboxamide], under setting [3], the “Maximum % activity (with co-corrector)” value is given as “+++ (≥350)”. Besides, the EC50 is, setting by setting: under setting [4], less than 3 µM; under setting [6], less than 3 µM. For the same molecule, the Emax under setting [5] is more than 150%.

For the molecule `Cc1ccc(OC(C)C)c(C2(C(=O)NS(=O)(=O)c3cccc4[nH]ncc34)CC2)c1` [II-75], the half-maximal effective concentration (EC50) was less than 3 µM under setting [1] and less than 3 µM under setting [2]. The “Maximum % activity (with co-corrector)” value (with co-corrector) is on record as “+++ (≥350)”. For the same molecule, the Emax (without co-corrector) is more than 150%.

With `O=C(NS(=O)(=O)c1ccccc1)C1(c2ccc(Cl)c(Cl)c2)CC1` [Example III-34, N-(benzenesulfonyl)-1-(3,4-dichlorophenyl)cyclopropane-1-carboxamide], the EC50 was more than 10 µM under setting [1] and more than 10 µM under setting [2]. The “Maximum % activity (with co-corrector)” value (with co-corrector) was “++ (≥150 and <350)”. Also, the Emax (without co-corrector) is less than 50%.

With `COc1cc(C2(C(=O)NS(=O)(=O)c3cccc4nc(C)ccc34)CC2)c(OC(F)F)cn1` [GIII-22], under setting [3], the “EC50 (with co-corrector)” value is “++^a”; the “Maximum % activity (with co-corrector)” value was “++ (≥150 and <350)”. In addition, under setting [5], the “EC50 (without co-corrector)” value is on record as “++^a” and the Emax lay within 50 to 150%.

Consider `O=C(NS(=O)(=O)c1cccc2ncccc12)C1(c2ccc(C(F)(F)F)nc2C2CCC2)CC1` [GII-14, 1-[2-cyclobutyl-6-(trifluoromethyl)pyridin-3-yl]-N-(quinoline-5-sulfonyl)cyclopropane-1-carboxamide], for which the “Maximum % activity (with co-corrector)” value under setting [3] is listed as “+++ (≥350)”. The EC50 reads like this: under setting [4], 3 to 10 µM; under setting [6], 3 to 10 µM. Moreover, the Emax under setting [5] is more than 150%.

Regarding `CCc1cnc(OC(C)C)c(C2(C(=O)NS(=O)(=O)c3cccc4[nH]ccc34)CC2)c1` [Example GI-41, 1-{5-ethyl-2-[(propan-2-yl)oxy]pyridin-3-yl}-N-(1H-indole-4-sulfonyl)cyclopropane-1-carboxamide], the “Maximum % activity (with co-corrector)” value under setting [3] is recorded as “+++ (≥350)”. For the same molecule, the EC50 is less than 3 µM under setting [4] and less than 3 µM under setting [6]. Further, under setting [5], the Emax is more than 150%.

Source of the values: patent publication US10829473B2, “Modulators of the cystic fibrosis transmembrane conductance regulator protein and methods of use” (AbbVie Overseas S.Á.R.L., priority 2017, dated 2020).
